# Results taken from US11752156B2, “Compositions and methods for treating hyperproliferative skin disorders” (Athenex HK Innovative Limited, priority 2018, dated 2023).
# Where “and” joins values, the source holds several entries; their conditions need not be identical. Equal entries are not always repeated. Where two headings read alike, the source gives them in different places.
# How the values were obtained:
# [1] = tested on: human keratinocytes in culture (cell line CCD-1106 KERTr); assay: cell viability / cell growth of human keratinocytes in culture, KX01, calcipotriol and fixed-ratio combinations; assay type: cell-based; design: cell growth (cell viability): unit not given here
# Excerpt: Typical data from studies of the effects of compound KX01 provided in combination with calcipotriol on growth of human keratinocytes in culture (cell line CCD-1106 KERTr) are shown in FIGS. 1 to 3 and Tables 1 to 6. FIG. 1 and Tables 1 and 2 show the degree of growth inhibition found in a typical study performed with KX01 and calcipotriol at a 1:5 ratio.
# CCD-1106 KERTr cells = assay: FITC annexin V / PI apoptosis assay by flow cytometry, 24 hours; assay type: cell-based, human; settings: 24 hours
# Protocol: In addition to growth inhibition, Inventors also investigated the effect of KX01 on apoptosis in keratinocytes. CCD-1106 KERTr cells (1×10^6) were seeded in 60 mm dishes and treated with test compounds at varying concentrations (e.g. KX01: 20 to 500 nM; calcipotriol 50 to 1000 nM) for 24 hours. Cell apoptosis was assessed by using a FITC annexin V apoptosis detection kit (BD Biosciences™) according to manufacturer's instruction. Briefly, cells were collected in 1× binding buffer and incubated with fluorescein isothiocyanate (FITC)-conjugated annexin V and propidium iodide (PI) for 15 minutes at room temperature in the dark, followed by flow cytometry analysis using a LSRFortessa™ flow cytometer (BD Biosciences™).
# [2] = tested on: CCD 1106 KERTr human keratinocyte cell line; assay: MTT cell proliferation assay, 72 hours, dark or blue light, keratinocytes; assay type: cell-based; settings: for inhibition at 0.01 µM / inhibition at 0.02 µM / inhibition at 0.04 µM / inhibition at 0.08 µM: Homo sapiens, read-out: growth inhibition relative to untreated control
# Protocol: The effects of combined treatment with KX01, a vitamin D derivative, and/or blue/UV light exposure were characterized using a cell proliferation assay. Cell proliferation was assessed by using an MTT assay. Cells were seeded in 96-well plate (3,000-5,000 cells per well) and treated with test compounds at varying concentrations (e.g. KX01: 5 to 80 nM; calcipotriol 5 to 1,280 nM) for 72 hours, either in the dark or exposed to blue light irradiation (for 2, 4, or 6 hours). To each well, 10 μl of 3-(4,5-dimethylthiazol-2-yl)-2,5-diphenyltetrazolium bromide (MTT) (RPI Corporation™) solution (5 mg/ml in PBS) was added and incubated at 37° C. for 3 hours. Next, 100 μl of 20% SDS was added to each well. After overnight incubation at 37° C., the absorbance in each well was measured at 570 nm in a microplate reader (Molecular Devices™). The cell growth curve and GI50s were calculate using GraphPad Prism™ 5 software. Tables 13 and 14 show the results of cell growth inhibition studies (expressed as a percentage relative to control cell growth) for treatment with either KX01 or calcipotriol in combination with exposure to blue light. […] The percentage of growth inhibition relative to untreated control is shown. […] The percentage of growth inhibition relative to untreated control is shown. Tables 15 to 18 show the effects of combined treatment with KX01, calcipotriol, and exposure to blue light at 0 hours, 2 hours, 4 hours, and 6 hours of light exposure (respectively). Values are expressed as the percentage of growth inhibition relative to cells grown under control conditions (0 hours blue light, [KX01]=0, [calcipotriol]=0). […] Results are shown below in Tables 27 to Table 30, which show results from 0, 2, 4, and 6 hours of blue light exposure (respectively). Values are expressed as the percentage of growth inhibition relative to cells grown under control conditions (0 hours blue light, [KX01]=0, [calcipotriol]=0).
structure (smiles),measurement,setting,value
"O=C(Cc1ccc(-c2ccc(OCCN3CCOCC3)cc2)cn1)NCc1ccccc1 [KX01, N-benzyl-2-(5-{4-[2-(morpholine-4-yl)ethoxy]phenyl}pyridine-2-yl)acetamide]",GI50,[1],38 nM and 36 nM
same,GI50,"[1]; Homo sapiens, CCD-1106",32 nM
same,viability at 0.000333 µM,"[1]; Homo sapiens, CCD-1106, concentration 0.333 nM",100%
same,viability at 0.001 µM,"[1]; Homo sapiens, CCD-1106, concentration 1 nM",97%
same,viability at 0.003 µM,"[1]; Homo sapiens, CCD-1106, concentration 3 nM",90.9%
same,viability at 0.009 µM,"[1]; Homo sapiens, CCD-1106, concentration 9 nM",94.7%
same,viability at 0.027 µM,"[1]; Homo sapiens, CCD-1106, concentration 27 nM",67.1%
same,viability at 0.243 µM,"[1]; Homo sapiens, CCD-1106, concentration 243 nM",2.07%
same,viability at 0.729 µM,"[1]; Homo sapiens, CCD-1106, concentration 729 nM",6.66%
same,viability at 2.187 µM,"[1]; Homo sapiens, CCD-1106, concentration 2187 nM",8.91%
same,cell growth (cell viability),"[1]; concentration 0.333 nM, 0.000333 µM",102.3 and 98.0
same,cell growth (cell viability),"[1]; concentration 1 nM, 0.001 µM",99.9 and 101.3
same,cell growth (cell viability),"[1]; concentration 3 nM, 0.003 µM",100.0 and 96.6
same,cell growth (cell viability),"[1]; concentration 9 nM, 0.009 µM",100.2 and 98.2
same,cell growth (cell viability),"[1]; concentration 27 nM, 0.027 µM",79.8 and 80.1
same,cell growth (cell viability),"[1]; concentration 729 nM, 0.729 µM",9.9 and 7.3
same,cell growth (cell viability),"[1]; concentration 2187 nM, 2.187 µM",14.9 and 9.5
same,late apoptic cells,CCD-1106 KERTr cells; KX01 20 nM,2.09%
same,late apoptic cells,CCD-1106 KERTr cells; KX01 40 nM,3.50%
same,late apoptic cells,CCD-1106 KERTr cells; KX01 100 nM,6.33%
same,late apoptic cells,CCD-1106 KERTr cells; KX01 500 nM,4.34%
same,inhibition at 0.01 µM,"[2]; CCD-1106, 2 h, KX01 10 nM, blue light 2 h",27%
same,inhibition at 0.02 µM,"[2]; CCD-1106, 2 h, KX01 20 nM, blue light 2 h",63%
same,inhibition at 0.04 µM,"[2]; CCD-1106, 2 h, KX01 40 nM, blue light 2 h",92%
same,inhibition at 0.01 µM,"[2]; CCD-1106, 4 h, KX01 10 nM, blue light 4 h",47%
same,inhibition at 0.02 µM,"[2]; CCD-1106, 4 h, KX01 20 nM, blue light 4 h",64%
same,inhibition at 0.04 µM,"[2]; CCD-1106, 4 h, KX01 40 nM, blue light 4 h",87%
same,inhibition at 0.08 µM,"[2]; CCD-1106, 4 h, KX01 80 nM, blue light 4 h",92%
same,inhibition at 0.01 µM,"[2]; CCD-1106, 6 h, KX01 10 nM, blue light 6 h",56%
same,inhibition at 0.02 µM,"[2]; CCD-1106, 6 h, KX01 20 nM, blue light 6 h",70%
same,inhibition at 0.04 µM,"[2]; CCD-1106, 6 h, KX01 40 nM, blue light 6 h",88%
same,inhibition at 0.08 µM,"[2]; CCD-1106, 6 h, KX01 80 nM, blue light 6 h",87%
same,growth inhibition relative to untreated control,"[2]; KX01 10 nM, blue light 0 h",4% and 9% and 6%
same,growth inhibition relative to untreated control,"[2]; KX01 10 nM, blue light 2 h",32% and 34%
same,growth inhibition relative to untreated control,"[2]; KX01 10 nM, blue light 4 h",50%
same,growth inhibition relative to untreated control,"[2]; KX01 10 nM, blue light 6 h",62% and 57%
same,growth inhibition relative to untreated control,"[2]; KX01 20 nM, blue light 0 h",49%
same,growth inhibition relative to untreated control,"[2]; KX01 20 nM, blue light 2 h",74% and 68%
same,growth inhibition relative to untreated control,"[2]; KX01 20 nM, blue light 4 h",69% and 68%
same,growth inhibition relative to untreated control,"[2]; KX01 20 nM, blue light 6 h",67% and 73%
same,growth inhibition relative to untreated control,"[2]; KX01 40 nM, blue light 0 h",90% and 45%
same,growth inhibition relative to untreated control,"[2]; KX01 40 nM, blue light 2 h",98% and 91%
same,growth inhibition relative to untreated control,"[2]; KX01 40 nM, blue light 4 h",86%
same,growth inhibition relative to untreated control,"[2]; KX01 40 nM, blue light 6 h",84%
same,growth inhibition relative to untreated control,"[2]; KX01 80 nM, blue light 0 h",96% and 48% and 95%
same,growth inhibition relative to untreated control,"[2]; KX01 80 nM, blue light 4 h",93% and 90%
same,growth inhibition relative to untreated control,"[2]; KX01 80 nM, blue light 6 h",83%
same,effect of blue light exposure with the drug on cell growth inhibition,[2]; for example 6 hours of blue light with 10 nm KX01,Synergistic effects
